According to ChEMBL document CHEMBL1201862, “PubChem BioAssay data set” (2004):
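Compound exposure: 48 hours, 5 concentrations, 96-well plates. The concentration for 50% growth inhibition is given as GI50.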 Calls of active or inactive are those of the source. No stated cut-off is given here; in the data, active = GI50 up to about 1.1 µM and inactive = higher.

Columns and labels:
Experiment in all cases: growth of human tumour cells (NCI), 48 h
SF-295 = test system: SF-295
Malme-3M = test system: Malme-3M
HOP-62 = test system: HOP-62
MDA-MB-435 = test system: MDA-MB-435
NCI-H522 = test system: NCI-H522
HCC 2998 = test system: HCC 2998
RPMI-8226 = test system: RPMI-8226
OVCAR-4 = test system: OVCAR-4
RXF 393 = test system: RXF 393
NCI-H226 = test system: NCI-H226
UACC-62 = test system: UACC-62
SNB-19 = test system: SNB-19
MDA-MB-231 = test system: MDA-MB-231
OVCAR-5 = test system: OVCAR-5
DU-145 = test system: DU-145
COLO 205 = test system: COLO 205
IGROV-1 = test system: IGROV-1
A498 = test system: A498
SK-MEL-28 = test system: SK-MEL-28
EKVX = test system: EKVX

SMILES	GI50 (SF-295)	GI50 (Malme-3M)	GI50 (HOP-62)	GI50 (MDA-MB-435)	GI50 (NCI-H522)	GI50 (HCC 2998)	GI50 (RPMI-8226)	GI50 (OVCAR-4)	GI50 (RXF 393)	GI50 (NCI-H226)	GI50 (UACC-62)	GI50 (SNB-19)	GI50 (MDA-MB-231)	GI50 (OVCAR-5)	GI50 (DU-145)	GI50 (COLO 205)	GI50 (IGROV-1)	GI50 (A498)	GI50 (SK-MEL-28)	GI50 (EKVX)
Cc1cc(S(=O)(=O)Nc2nnc3cnc4ccccc4n23)c(S)cc1Cl	> 100 µM (inactive)	> 100 µM (inactive)	79.4 µM (inactive)	> 100 µM (inactive)	> 100 µM (inactive)	> 100 µM (inactive)	> 100 µM (inactive)	> 100 µM (inactive)	> 100 µM (inactive)	> 94.6 µM (inactive)	79.1 µM (inactive)	51.9 µM (inactive)	> 100 µM (inactive)	> 100 µM (inactive)	> 100 µM (inactive)	> 100 µM (inactive)	> 100 µM (inactive)	> 100 µM (inactive)	–	–
COC(=O)c1sc(=S)sc1SCc1cccc(CSc2sc(=S)sc2C(=O)OC)c1	26 µM (inactive)	> 100 µM (inactive)	16.1 µM (inactive)	> 100 µM (inactive)	> 100 µM (inactive)	> 100 µM (inactive)	> 100 µM (inactive)	> 100 µM (inactive)	16.2 µM (inactive)	–	22.9 µM (inactive)	26.8 µM (inactive)	36.6 µM (inactive)	> 100 µM (inactive)	> 100 µM (inactive)	> 100 µM (inactive)	60.7 µM (inactive)	24.8 µM (inactive)	> 100 µM (inactive)	56 µM (inactive)
COC(=O)/C(=C\c1cn(C(C)=O)c2ccccc12)P(=O)(OC)OC	14.9 µM (inactive)	16.7 µM (inactive)	14.9 µM (inactive)	21.2 µM (inactive)	11.2 µM (inactive)	16.8 µM (inactive)	17.1 µM (inactive)	14.6 µM (inactive)	16.7 µM (inactive)	38.4 µM (inactive)	11.5 µM (inactive)	18.1 µM (inactive)	11.7 µM (inactive)	–	13.4 µM (inactive)	16.8 µM (inactive)	13.3 µM (inactive)	17.3 µM (inactive)	24.1 µM (inactive)	17 µM (inactive)
C/C(=N\NS(=O)(=O)c1ccc(C)cc1)c1ccccn1	43.3 µM (inactive)	60.3 µM (inactive)	62.2 µM (inactive)	> 100 µM (inactive)	–	> 100 µM (inactive)	> 100 µM (inactive)	68.2 µM (inactive)	> 100 µM (inactive)	32.9 µM (inactive)	40.2 µM (inactive)	74.8 µM (inactive)	> 100 µM (inactive)	> 100 µM (inactive)	> 100 µM (inactive)	32.7 µM (inactive)	47.2 µM (inactive)	24.3 µM (inactive)	98.2 µM (inactive)	35.5 µM (inactive)
C1=C\SS/C=C\SS/1	58.1 µM (inactive)	–	54.6 µM (inactive)	57.5 µM (inactive)	–	53.3 µM (inactive)	28.9 µM (inactive)	46.8 µM (inactive)	32.2 µM (inactive)	> 100 µM (inactive)	52.4 µM (inactive)	32.3 µM (inactive)	6.53 µM (inactive)	35.3 µM (inactive)	> 100 µM (inactive)	39.3 µM (inactive)	16.6 µM (inactive)	> 100 µM (inactive)	> 100 µM (inactive)	46.8 µM (inactive)
CN(CCNC(=O)c1nn(-c2ccccc2)c2c1Cc1ccccc1-2)CCNC(=O)c1nn(-c2ccccc2)c2c1Cc1ccccc1-2	1.81 µM (inactive)	1.82 µM (inactive)	1.79 µM (inactive)	1.61 µM (inactive)	1.57 µM (inactive)	1.74 µM (inactive)	4.01 µM (inactive)	1.82 µM (inactive)	1.57 µM (inactive)	–	1.71 µM (inactive)	2.14 µM (inactive)	1.82 µM (inactive)	2.37 µM (inactive)	2.59 µM (inactive)	1.79 µM (inactive)	1.67 µM (inactive)	1.84 µM (inactive)	1.69 µM (inactive)	4.44 µM (inactive)
Cc1ccc(NC(=S)N/N=C(/c2ccccc2)c2ccccn2)cc1	0.212 µM (active)	–	0.16 µM (active)	0.4 µM (active)	1.31 µM (inactive)	2.22 µM (inactive)	< 0.0161 µM (active)	0.241 µM (active)	0.621 µM (active)	0.124 µM (active)	0.304 µM (active)	3.27 µM (inactive)	< 0.01 µM (active)	0.0233 µM (active)	0.938 µM (active)	< 0.0166 µM (active)	< 0.0173 µM (active)	0.815 µM (active)	0.224 µM (active)	0.0675 µM (active)
CSc1ncc2c(C#N)c3[nH]c4ccccc4n3c(=O)c2n1	9.84 µM (inactive)	–	19.8 µM (inactive)	16.9 µM (inactive)	7.52 µM (inactive)	10.9 µM (inactive)	1.88 µM (inactive)	6.84 µM (inactive)	7.53 µM (inactive)	34.1 µM (inactive)	4.61 µM (inactive)	16.9 µM (inactive)	26.6 µM (inactive)	55.1 µM (inactive)	28.8 µM (inactive)	17 µM (inactive)	18.1 µM (inactive)	9.84 µM (inactive)	–	33.9 µM (inactive)
Nc1ccccc1-c1noc(=O)[nH]1	> 100 µM (inactive)	–	> 100 µM (inactive)	> 100 µM (inactive)	> 100 µM (inactive)	> 100 µM (inactive)	> 100 µM (inactive)	> 100 µM (inactive)	> 100 µM (inactive)	> 100 µM (inactive)	> 100 µM (inactive)	> 100 µM (inactive)	> 100 µM (inactive)	> 100 µM (inactive)	> 100 µM (inactive)	> 100 µM (inactive)	60.4 µM (inactive)	> 100 µM (inactive)	> 100 µM (inactive)	> 100 µM (inactive)
c1ccc(Sc2nc(Sc3ccccc3)nc(Sc3ccccc3)n2)cc1	63.7 µM (inactive)	> 100 µM (inactive)	35.7 µM (inactive)	52.1 µM (inactive)	97.1 µM (inactive)	18.1 µM (inactive)	15.4 µM (inactive)	55 µM (inactive)	61.7 µM (inactive)	25.9 µM (inactive)	> 100 µM (inactive)	31.8 µM (inactive)	> 100 µM (inactive)	58.7 µM (inactive)	21.1 µM (inactive)	18.6 µM (inactive)	–	29.9 µM (inactive)	43.7 µM (inactive)	35 µM (inactive)
O=C1c2cccc(NCCCNCCO)c2C(=O)c2cccc(NCCCNCCO)c21	–	–	1.96 µM (inactive)	1.67 µM (inactive)	0.373 µM (active)	0.9 µM (active)	2.44 µM (inactive)	–	2.13 µM (inactive)	–	2.01 µM (inactive)	1.15 µM (inactive)	1.42 µM (inactive)	2.31 µM (inactive)	2.62 µM (inactive)	1.8 µM (inactive)	2.81 µM (inactive)	2.8 µM (inactive)	1.83 µM (inactive)	2.94 µM (inactive)
CC(=O)OC1c2ccccc2CC2(OC(C)=O)c3ccccc3C12 (configuration not stated)	> 100 µM (inactive)	> 100 µM (inactive)	> 100 µM (inactive)	> 100 µM (inactive)	–	> 100 µM (inactive)	> 100 µM (inactive)	> 100 µM (inactive)	> 100 µM (inactive)	> 100 µM (inactive)	> 100 µM (inactive)	> 100 µM (inactive)	> 100 µM (inactive)	> 100 µM (inactive)	> 100 µM (inactive)	> 100 µM (inactive)	> 100 µM (inactive)	> 100 µM (inactive)	> 100 µM (inactive)	> 100 µM (inactive)
C[C@]12CC[C@@H]3c4cc(C=O)c(OCc5ccccc5)cc4CC[C@H]3[C@@H]1CCC2OCc1ccccc1 (some centres not stated)	> 100 µM (inactive)	–	> 100 µM (inactive)	> 100 µM (inactive)	80 µM (inactive)	> 100 µM (inactive)	> 100 µM (inactive)	> 100 µM (inactive)	> 100 µM (inactive)	32.8 µM (inactive)	> 100 µM (inactive)	–	> 100 µM (inactive)	> 100 µM (inactive)	> 100 µM (inactive)	> 100 µM (inactive)	–	> 100 µM (inactive)	> 100 µM (inactive)	> 100 µM (inactive)
C[C@H](CCC(=O)O)[C@H]1CC[C@H]2[C@@H]3C(=O)C[C@@H]4C[C@H](O)CC[C@]4(C)[C@H]3C[C@H](O)[C@]12C	–	> 100 µM (inactive)	> 100 µM (inactive)	> 100 µM (inactive)	> 100 µM (inactive)	> 100 µM (inactive)	> 100 µM (inactive)	> 100 µM (inactive)	> 100 µM (inactive)	> 100 µM (inactive)	> 100 µM (inactive)	> 100 µM (inactive)	> 100 µM (inactive)	> 100 µM (inactive)	> 100 µM (inactive)	> 100 µM (inactive)	> 100 µM (inactive)	> 100 µM (inactive)	> 100 µM (inactive)	> 100 µM (inactive)
Cc1cccc(-c2cc(O)c3ccc(C)nc3n2)c1	0.278 µM (active)	0.296 µM (active)	0.546 µM (active)	0.0294 µM (active)	0.194 µM (active)	1.07 µM (active)	0.43 µM (active)	10 µM (inactive)	0.456 µM (active)	0.367 µM (active)	0.41 µM (active)	0.506 µM (active)	0.409 µM (active)	0.723 µM (active)	0.598 µM (active)	0.14 µM (active)	0.601 µM (active)	0.644 µM (active)	2.75 µM (inactive)	–
